In PMC12340956, “Tranylcypromine-Based LSD1 Inhibitors as Useful Agents to Reduce Viability of” (ACS Infectious Diseases, 2025):
Read-outs that look alike come from different tables or passages of the source.

How the values were obtained:
[1] = tested on: adult worms; assay: Adult worm viability phenotypic assay, 72 h; settings: Schistosoma mansoni, read-out: IC50 (adult worm viability)
Procedure: The life cycle is maintained at the Swiss TPH as described previously. Cercariae were obtained from infected snails by exposing them to a strong light source for 3–4 h in pond water.
For NTS and adult worms, transparent flat-bottom 96- and 24-well plates were used, respectively (Sarstedt, Switzerland). For juvenile worms, 48-well plates were used with 3–6 worms per plate and RPMI medium with 5% FCS and 1% penicillin/streptomycin. Compounds were initially tested at 20 and 10 μM in triplicate on NTS and repeated once; each well contained 30–40 NTS. Phenotypic reference points such as motility, morphology, and granularity were used to score incubated parasites’ overall viability (scores from 0 to 3). […] Identified hits from the NTS screening were tested on adult worms. […] The experiment was conducted in duplicate and repeated; standard deviations were calculated from two wells. […] For all in vitro assays, negative controls (DMSO at the highest tested concentration) were included.

[2] = tested on: NTS; assay: Speed-of-action assay in NTS; type: cell-based, Schistosoma mansoni; settings: for Percentage of effect: NTS; for IC50: Schistosoma mansoni, read-out: IC50 (speed of action, NTS)
From the text: (§1) To better characterize a selection of our LSD1i in vitro, we assessed the onset of their action, defined as the time required for an observable antischistosomal effect. […] For detailed percentages of activity at each time point, refer to the Supporting Information (Tables S2 and S3 in Supporting Information).

[3] = tested on: S. mansoni juvenile forms; assay: Speed-of-action assay in juvenile forms; type: cell-based, Schistosoma mansoni; settings: for IC50: Schistosoma mansoni, read-out: IC50 (speed of action, juvenile forms); for Percentage of effect: juvenile forms
From the text: as §1

[4] = target: T1, human LSD1-CoREST complex (Homo sapiens, UniProt O60341); assay: HRP-coupled LSD1 inhibition assay; type: biochemical; settings: 10 min preincubation, read-out: IC50 (hLSD1 direct inhibition)
T1 construct: made in house
Procedure: Protein expression, thermal stability, and inhibition of human LSD1-CoREST were performed using established protocols. […] The reaction was initiated by adding an equal volume of the substrate solution to the enzyme–inhibitor mixture, and resorufin fluorescence (excitation at 530–570 nm and emission at 580–590 nm) was detected with a Clariostar plate reader.

[5] = tested on: newly transformed schistosomula (NTS); assay: NTS viability phenotypic screening, 72 h
[6] = target: T1, human LSD1-CoREST complex; assay: ThermoFAD thermal stability assay; type: binding; settings: for ΔTm: LSD1-CoREST thermal stability
Procedure: Compounds 14–22 were tested against the human LSD1-CoREST complex to determine their inhibitory activity. […] ThermoFAD assays were then performed to assess the impact of 14–22 on the thermal stability (ΔT m values, Table ) of the LSD1-CoREST complex. The most significant shifts in Tm values corresponded to the strongest binders. […] Compound 22 was not tested, considering its previous negative results.
Protein expression, thermal stability, and inhibition of human LSD1-CoREST were performed using established protocols. […] LSD1-CoREST (0.4 μM) was preincubated with the inhibitor at 25 °C for 10 min in the presence of 5% DMSO. The reaction was initiated by adding an equal volume of the substrate solution to the enzyme–inhibitor mixture, and resorufin fluorescence (excitation at 530–570 nm and emission at 580–590 nm) was detected with a Clariostar plate reader.

[7] = MTT cytotoxicity in RPE cells; type: cell-based; settings: human, retinal pigment epithelial (RPE) cells
Procedure: (§2) The MTT method was used to evaluate cell viability after 72 h of treatment.
(§3) Human commercial lung diploid fibroblasts (MRC-5), and diploid retinal epithelium cells (RPE) were obtained from the American Type Culture Collection (ATCC) and kindly provided by Dr Francesca Degrassi (CNR IBPM) and maintained in minimal essential medium or DMEM-F12 medium supplemented with fetal calf serum, antibiotics, and nonessential amino acids. Cells were grown at 37 °C, in a humidified atmosphere, with 5% CO2. For experiments, cells were seeded in 200 μL of complete in each well of a 96-well microtiter plate. After 24 h, compounds were added at 5, 10, 25, and 50 μM for 72 h in sextuplicate. MTT was added (0.5 mg/mL), incubated for 4 h at 37 °C, and dissolved in 200 μL of isopropyl alcohol. Absorbance was measured at 570 nm (ELISA reader, DASIT), and cell viability was calculated as viability=(ODoftreatedcells/ODofcontrolcells)×100

[8] = tested on: adult worms; assay: Pairing and egg laying of adult worms; type: cell-based, Schistosoma mansoni; settings: for eggs' number: 20 μM
Procedure: Selected compounds 2, 15, 18, and 19 were tested on adult worms to evaluate their effects on pairing and egg laying.

[9] = MTT cytotoxicity in MRC-5 cells; type: cell-based; settings: human, MRC-5 lung diploid fibroblast cells
Procedure: as §2, §3

[10] = target: T1, human LSD1-CoREST complex; assay: Spectrophotometric analysis of flavin cofactor bleaching; type: biochemical
[11] = 5 μM, read-out: percentage of viability, 72 h
[12] = 10 μM, read-out: percentage of viability, 72 h
[13] = 25 μM, read-out: percentage of viability, 72 h
[14] = 50 μM, read-out: percentage of viability, 72 h
[15] = read-out: IC50 (cell viability)

Cl.NC1CC1c1ccc(NC(=O)c2ccc(C#CC3CC3)cc2)cc1 (stereo not drawn) [Compound 19, N-(4-(2-Aminocyclopropyl)phenyl)-4-(cyclopropylethynyl)benzamide Hydrochloride]
IC50 [1]: > 10 µM | Percentage of effect ([2]; 4 h, 10 μM): 30.77% | Percentage of effect ([2]; 4 h, 20 μM): 38.46% | Percentage of effect ([2]; 24 h, 10 μM): 48.21% | Percentage of effect ([2]; 24 h, 20 μM): 78.57% | Percentage of effect ([2]; 48 h, 10 μM): 87.76% | Percentage of effect ([2]; 48 h, 20 μM): 100% | Percentage of effect ([2]; 72 h, 10 μM): 93.88% | Percentage of effect ([2]; 72 h, 20 μM): 100% | IC50 ([2]; 4 h): > 20 µM | IC50 ([2]; 24 h): 10.4 µM | IC50 ([2]; 48 h): 8.3 µM | IC50 ([2]; 72 h): 7.5 µM | IC50 ([3]; 4 h): > 20 µM | IC50 ([3]; 24 h): > 20 µM | IC50 ([3]; 48 h): > 20 µM | IC50 ([3]; 72 h): 2.7 µM | Percentage of effect ([3]; 4 h, 1 μM): 20% | Percentage of effect ([3]; 4 h, 10 μM): 20% | Percentage of effect ([3]; 4 h, 20 μM): 41.82% | Percentage of effect ([3]; 24 h, 1 μM): 27.59% | Percentage of effect ([3]; 24 h, 10 μM): 34.48% | Percentage of effect ([3]; 24 h, 20 μM): 40.38% | Percentage of effect ([3]; 48 h, 1 μM): 36.54% | Percentage of effect ([3]; 48 h, 10 μM): 46.15% | Percentage of effect ([3]; 48 h, 20 μM): 47.92% | Percentage of effect ([3]; 72 h, 1 μM): 43.03% | Percentage of effect ([3]; 72 h, 10 μM): 46.73% | Percentage of effect ([3]; 72 h, 20 μM): 81.25% | IC50 [4]: 0.02 ± 0.001 µM | Percentage of reduction of NTS viability, 72 h ([5]; 1 μM): 22.6 ± 1.9% | Percentage of reduction of NTS viability, 72 h ([5]; 10 μM): 100 ± 0.0% | Percentage of reduction of NTS viability, 72 h ([5]; 20 μM): 100 ± 0.0% | IC50 ([5]; Schistosoma mansoni, read-out: IC50 (NTS viability)): 1.27 µM | ΔTm [6]: +8 °C | viability at 72 h, 5 µM [7, 11]: 92 ± 26% | viability at 72 h, 10 µM [7, 12]: 89 ± 35% | viability at 72 h, 25 µM [7, 13]: 98 ± 21% | viability at 72 h, 50 µM [7, 14]: 103 ± 20% | IC50 at 72 h [7, 15]: > 100 µM | eggs' number ([8]; 4 h): 0 | eggs' number ([8]; 8 h): 0 | eggs' number ([8]; 24 h): 0 | eggs' number ([8]; 48 h): 0 | eggs' number ([8]; 72 h): 5 | effect on worm pairing ([8]; adult worms): no impact on worm pairing | viability at 72 h, 5 µM [9, 11]: 98 ± 20% | viability at 72 h, 10 µM [9, 12]: 88 ± 18% | viability at 72 h, 25 µM [9, 13]: 85 ± 8% | viability at 72 h, 50 µM [9, 14]: 85 ± 35% | IC50 at 72 h [9, 15]: > 100 µM

Cl.NC1CC1c1cccc(NC(=O)c2ccc(C#CC3CC3)cc2)c1 (stereo not drawn) [Compound 22, N-(3-(2-Aminocyclopropyl)phenyl)-4-(cyclopropylethynyl)benzamide Hydrochloride]
thermal shift compared to the control [6]: no thermal shift | ΔTm [6]: 0 °C | bleaching of the flavin cofactor [10]: no bleaching
